Results on 46 molecules are retold here after patent publication US11279681B2, “3-alkyl bicyclic [4,5,0] hydroxamic acids as HDAC inhibitors” (Valo Health, Inc., priority 2015, dated 2022).

This assay deals with T1, HDAC6 (Homo sapiens, UniProt Q9UBN7).
T1 sequence (Q9UBN7 1-1215): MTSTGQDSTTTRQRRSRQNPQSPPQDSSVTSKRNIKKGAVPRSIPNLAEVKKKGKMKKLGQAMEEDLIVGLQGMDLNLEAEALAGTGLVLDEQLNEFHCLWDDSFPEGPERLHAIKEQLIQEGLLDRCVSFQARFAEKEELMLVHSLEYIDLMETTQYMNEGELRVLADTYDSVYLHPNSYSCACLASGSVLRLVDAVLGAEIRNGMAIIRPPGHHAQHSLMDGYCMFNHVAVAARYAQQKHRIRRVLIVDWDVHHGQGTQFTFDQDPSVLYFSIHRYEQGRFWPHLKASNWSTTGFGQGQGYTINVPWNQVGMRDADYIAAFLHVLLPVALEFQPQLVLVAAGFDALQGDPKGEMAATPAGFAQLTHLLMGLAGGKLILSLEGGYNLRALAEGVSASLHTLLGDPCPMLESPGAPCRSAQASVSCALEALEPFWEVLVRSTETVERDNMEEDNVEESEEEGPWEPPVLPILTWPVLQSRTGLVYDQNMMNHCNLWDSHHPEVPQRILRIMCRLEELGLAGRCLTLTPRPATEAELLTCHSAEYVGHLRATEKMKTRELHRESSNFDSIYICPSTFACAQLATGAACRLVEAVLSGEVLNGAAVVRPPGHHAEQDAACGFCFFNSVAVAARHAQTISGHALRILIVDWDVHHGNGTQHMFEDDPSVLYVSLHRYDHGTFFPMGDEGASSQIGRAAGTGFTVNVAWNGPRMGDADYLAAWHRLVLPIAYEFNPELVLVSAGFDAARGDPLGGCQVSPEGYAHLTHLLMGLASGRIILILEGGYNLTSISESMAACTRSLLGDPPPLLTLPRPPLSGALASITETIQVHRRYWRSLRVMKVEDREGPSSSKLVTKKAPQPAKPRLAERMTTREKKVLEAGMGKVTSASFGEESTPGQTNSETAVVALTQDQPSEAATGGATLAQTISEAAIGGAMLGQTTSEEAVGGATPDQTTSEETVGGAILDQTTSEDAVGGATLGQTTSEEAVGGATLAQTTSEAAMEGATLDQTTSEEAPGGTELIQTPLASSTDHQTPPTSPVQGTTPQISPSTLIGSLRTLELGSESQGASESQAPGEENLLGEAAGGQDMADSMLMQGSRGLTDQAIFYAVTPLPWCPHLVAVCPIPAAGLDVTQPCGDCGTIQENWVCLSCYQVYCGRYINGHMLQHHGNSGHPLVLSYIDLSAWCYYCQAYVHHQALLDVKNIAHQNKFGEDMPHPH
The assay is described as follows: In vitro histone deacetylase assay: enzymatic HDAC6 electrophoretic mobility shift assay. As to conditions: full length human recombinant HDAC6, 1 nM enzyme, 2 μM peptide substrate RHKK(Ac)-NH2, 25° C.; read-out: Inhibitory Concentration (IC50) Values for Representative Compounds against HDAC6, Activity Range. Format: biochemical. (In general: A gel shift assay detects complexes by their altered migration in electrophoresis.)

In the case of `C[C@H]1COc2cc(C(=O)NO)ccc2CN1C(=O)OC1CCOCC1` [tetrahydro-2H-pyran-4-yl(S)-8-(hydroxycarbamoyl)-3-methyl-2,3-dihydrobenzo[f][1,4]oxazepine-4(5H)-carboxylate], the IC50 was at most 100 nM.
Take `C[C@@H]1COc2cc(C(=O)NO)ccc2CN1c1ccccc1`: the IC50 fell in the range of 100 to 500 nM.
As for `C[C@H]1COc2cc(C(=O)NO)ccc2CN1c1ccc(OC(F)(F)F)cc1` [(S)-N-hydroxy-3-methyl-4-(4-(trifluoromethoxy)phenyl)-2,3,4,5-tetrahydrobenzo[f][1,4]oxazepine-8-carboxamide], the figure is 100 to 500 nM; as for `C[C@H]1COc2cc(C(=O)NO)ccc2CN1Cc1ccc(F)cc1` [(S)-4-(4-fluorobenzyl)-N-hydroxy-3-methyl-2,3,4,5-tetrahydrobenzo[f][1,4]oxazepine-8-carboxamide], at most 100 nM.
As for `COc1ccc(NC(=O)N2Cc3ccc(C(=O)NO)cc3O[C@@H](C)C2)cc1`, the figure is at most 100 nM; as for `CC(C)[C@@H]1COc2cc(C(=O)NO)ccc2CN1C`, at most 100 nM.
As for `C[C@H]1COc2cc(C(=O)NO)ccc2CN1C(=O)N1C[C@H]2CC[C@H](C1)O2` [(S)-4-((1R,5R)-8-oxa-3-azabicyclo[3.2.1]octane-3-carbonyl)-N-hydroxy-3-methyl-2,3,4,5-tetrahydrobenzo[f][1,4]oxazepine-8-carboxamide], the figure is at most 100 nM; as for `COc1ccc(CN2CC(=O)Nc3ccc(C(=O)NO)cc3C2)c(F)c1`, at most 100 nM; as for `COc1ccc(CN2Cc3ccc(C(=O)NO)cc3OCC23CC3)cc1` [N-hydroxy-4-(4-methoxybenzyl)-4,5-dihydro-2H-spiro[benzo[f][1,4]oxazepine-3,1′-cyclopropane]-8-carboxamide], at most 100 nM.
For the molecule `CCN1Cc2ccc(C(=O)NO)cc2OC[C@@H]1C` [(S)-4-ethyl-N-hydroxy-3-methyl-2,3,4,5-tetrahydrobenzo[f][1,4]oxazepine-8-carboxamide], the IC50 fell in the range of 100 to 500 nM.
With `COc1ccc(CN2CCOc3cc(C(=O)NO)ccc3[C@@H]2C)cc1` [(S)-N-hydroxy-4-(4-methoxybenzyl)-5-methyl-2,3,4,5-tetrahydrobenzo[f][1,4]oxazepine-8-carboxamide], the IC50 lay in the range of 100 to 500 nM.
As for `CC(c1ccccc1)N1CC(=O)Nc2ccc(C(=O)NO)cc2C1` (stereo not shown), the figure is at most 100 nM.
As for `CC(C)CN1Cc2ccc(C(=O)NO)cc2OC[C@@H]1C` [(S)-N-hydroxy-4-isobutyl-3-methyl-2,3,4,5-tetrahydrobenzo[f][1,4]oxazepine-8-carboxamide], the figure is at most 100 nM.
As for `O=C(NO)c1ccc2c(c1)OCCN(S(=O)(=O)N1CCCCC1)C2`, the figure is at most 100 nM; as for `CC(C)N1Cc2ccc(C(=O)NO)cc2OC[C@@H]1C` [(S)-N-hydroxy-4-isopropyl-3-methyl-2,3,4,5-tetrahydrobenzo[f][1,4]oxazepine-8-carboxamide], over 500 nM; as for `O=C1CN(Cc2ccc(-n3cccc3)cc2)Cc2cc(C(=O)NO)ccc2N1`, at most 100 nM.
As for `COc1ccc(NC(=O)N2Cc3ccc(C(=O)NO)cc3O[C@H](c3ccccc3)C2)cc1` [(R)-N8-hydroxy-N4-(4-methoxyphenyl)-2-phenyl-2,3-dihydrobenzo[f][1,4]oxazepine-4,8(5H)-dicarboxamide], the IC50 was 100 to 500 nM.
As for `COc1ccc(CN2Cc3ccc(C(=O)NO)cc3OC[C@@H]2C)cc1`, the figure is at most 100 nM; as for `COC1CCN(C(=O)N2CCOc3cc(C(=O)NO)ccc3C2)CC1` [N-hydroxy-4-(4-methoxypiperidine-1-carbonyl)-2,3,4,5-tetrahydrobenzo[f][1,4]oxazepine-8-carboxamide], 100 to 500 nM.
As for `C[C@H]1COc2cc(C(=O)NO)ccc2CN1C(=O)Nc1ccncc1` [(S)-N8-hydroxy-3-methyl-N4-(pyridin-4-yl)-2,3-dihydrobenzo[f][1,4]oxazepine-4,8(5H)-dicarboxamide], the figure is at most 100 nM; as for `CC[C@H]1COc2cc(C(=O)NO)ccc2CN1c1ccccc1` [(S)-3-ethyl-N-hydroxy-4-phenyl-2,3,4,5-tetrahydrobenzo[f][1,4]oxazepine-8-carboxamide], at most 100 nM.
As for `O=C(NO)c1ccc2c(c1)OCC1(CC1)N(c1ccccc1)C2` [N-hydroxy-4-phenyl-4,5-dihydro-2H-spiro[benzo[f][1,4]oxazepine-3,1′-cyclopropane]-8-carboxamide], the figure is 100 to 500 nM; as for `O=C(NO)c1ccc2c(c1)OCCN(C1CCCCC1)C2` [4-cyclohexyl-N-hydroxy-2,3,4,5-tetrahydrobenzo[f][1,4]oxazepine-8-carboxamide], over 500 nM; as for `CC1CCCCN1C(=O)N1Cc2ccc(C(=O)NO)cc2OC[C@@H]1C` (stereo partly drawn) [(3S)-N-hydroxy-3-methyl-4-(2-methylpiperidine-1-carbonyl)-2,3,4,5-tetrahydrobenzo[f][1,4]oxazepine-8-carboxamide], at most 100 nM.
Consider `O=C(NO)c1ccc2c(c1)OCCN(C(=O)N1CCCCC1)C2`, for which the IC50 was at most 100 nM.
As for `Cn1ccnc1CN1CC(=O)Nc2ccc(C(=O)NO)cc2C1`, the IC50 fell in the range of 100 to 500 nM.
As for `CC1CCCCN1C(=O)N1CCOc2cc(C(=O)NO)ccc2C1` (stereo not shown) [N-hydroxy-4-(2-methylpiperidine-1-carbonyl)-2,3,4,5-tetrahydrobenzo[f][1,4]oxazepine-8-carboxamide], the figure is at most 100 nM; as for `O=C(NO)c1ccc2c(c1)OCCN(c1ccncc1)C2` [N-hydroxy-4-(pyridin-4-yl)-2,3,4,5-tetrahydrobenzo[f][1,4]oxazepine-8-carboxamide], over 500 nM.
As for `C[C@H]1CN(c2ccccc2)Cc2ccc(C(=O)NO)cc2O1`, the figure is over 500 nM; as for `CN(C)Cc1cccc(CN2CC(=O)Nc3ccc(C(=O)NO)cc3C2)c1`, over 500 nM; as for `CN(C)CCN1CCOc2cc(C(=O)NO)ccc2C1`, over 500 nM.
As for `C[C@H]1COc2cc(C(=O)NO)ccc2CN1C(=O)N1Cc2ccccc2C1` [(S)-N-hydroxy-4-(isoindoline-2-carbonyl)-3-methyl-2,3,4,5-tetrahydrobenzo[f][1,4]oxazepine-8-carboxamide], the figure is at most 100 nM.
With `COc1ccc(NC(=O)N2Cc3ccc(C(=O)NO)cc3OC[C@H]2C(C)C)cc1`, the IC50 was 100 to 500 nM.
As for `COc1ccc(S(=O)(=O)N2Cc3ccc(C(=O)NO)cc3O[C@@H](C)C2)cc1`, the figure is over 500 nM; as for `O=C1CN(Cc2ccc(OC(F)(F)F)cc2)Cc2cc(C(=O)NO)ccc2N1`, 100 to 500 nM; as for `O=C1CN(Cc2cccc(Oc3ccccc3)c2)Cc2cc(C(=O)NO)ccc2N1`, 100 to 500 nM.
As for `C[C@H]1COc2cc(C(=O)NO)ccc2CN1C(=O)OC1CCC1` [cyclobutyl(S)-8-(hydroxycarbamoyl)-3-methyl-2,3-dihydrobenzo[f][1,4]oxazepine-4(5H)-carboxylate], the figure is at most 100 nM; as for `O=C1CN(Cc2ccc(-c3ccccn3)cc2)Cc2cc(C(=O)NO)ccc2N1`, at most 100 nM.
As for `O=C1CN(Cc2ccc3ccccc3c2)Cc2cc(C(=O)NO)ccc2N1`, the figure is at most 100 nM; as for `COC1CN(C(=O)N2Cc3ccc(C(=O)NO)cc3OC[C@@H]2C)C1` [(S)-N-hydroxy-4-(3-methoxyazetidine-1-carbonyl)-3-methyl-2,3,4,5-tetrahydrobenzo[f][1,4]oxazepine-8-carboxamide], at most 100 nM; as for `O=C(NO)c1ccc2c(c1)S(=O)(=O)N(Cc1ccccc1)CCO2`, 100 to 500 nM.
Turning to `O=C1CN(Cc2cc(F)cc(F)c2)Cc2cc(C(=O)NO)ccc2N1`, the IC50 is 100 to 500 nM.
For the molecule `O=C1CN(Cc2ccc(-c3nccs3)cc2)Cc2cc(C(=O)NO)ccc2N1`, the IC50 was at most 100 nM.
As for `COC[C@@H]1CN(C(=O)Nc2ccc(OC)cc2)Cc2ccc(C(=O)NO)cc2O1` [(S)-N8-hydroxy-2-(methoxymethyl)-N4-(4-methoxyphenyl)-2,3-dihydrobenzo[f][1,4]oxazepine-4,8(5H)-dicarboxamide], the figure is 100 to 500 nM; as for `C[C@H]1COc2cc(C(=O)NO)ccc2CN1C(=O)Nc1ccccc1` [(S)-N8-hydroxy-3-methyl-N4-phenyl-2,3-dihydrobenzo[f][1,4]oxazepine-4,8(5H)-dicarboxamide], at most 100 nM.
As for `COc1ccc(CCN2CC(=O)Nc3ccc(C(=O)NO)cc3C2)cc1`, the figure is 100 to 500 nM.
